Measured values from patent US11291719B2, “Methods and compositions for modulating Akt3” (Augusta University Research Institute, Inc., priority 2016, dated 2022).

Key:
[1] = tested on: FoxP3; experiment: Western blot of FoxP3 in Tconv cells during iTreg induction; format: cell-based; conditions: TGF-β induced
From the text: (§1) FIG. 12 is a western blot showing the expression of FoxP3, pAkt3, Akt3, pAkt1, and Akt1 in activated Tconv cells induced with TGF-β and treated with various concentrations of mJJ64A.

[2] = tested on: experimental autoimmune encephalomyelitis (EAE); experiment: Experimental autoimmune encephalomyelitis (EAE) model; format: in vivo, mouse
From the text: FIG. 24A is a schematic illustration of induction of experimental autoimmune encephalomyelitis (EAE) model. FIG. 24B is a chart showing the grading criterion for scoring severity of EAE. FIG. 24C is a line graph showing EAE score over time (days post EAE induction) for control (●), iTreg (blue circle), and mJJ64A-10 (▾) treated mice. The X-axis represents time (days) and the Y-axis represents EAE score. FIG. 24D is a line graph showing percent survival over time (days) for untreated (•), iTreg treated (●), and mJJ64A-10 treated (▾) mice. The X-axis represents time (days) and the Y-axis represents percent survival. FIG. 24E is a line graph representing EAE score over time (days post EAE induction) for control (●), iTreg (♦), mJJ64A-3 (blue circle), mJJ64A-6 (▾), and mJJ64A-10 (▴) treated EAE mice. The X-axis represents time (days post EAE induction) and the Y-axis represents EAE score. FIG. 24F is a line graph representing percent survival over time (days) for untreated (•), iTreg (blue circle), mJJ64A-3 (▾), mJJ64A-6 (▴), and mJJ64A-10 (♦) treated EAE mice. The X-axis represents time (days) and the Y-axis represents percent survival.

[3] = tested on: non-Treg CD4 and CD8 T cells; experiment: Proliferation of non-Treg CD4 and CD8 T cells; format: cell-based; conditions: data not shown
[4] = target: T1, Akt3 (Homo sapiens, UniProt Q9Y243); experiment: Western blot of Akt3 in Tconv cells during iTreg induction; format: cell-based; conditions: TGF-β induced
T1 construct: endogenous in cells
T1 sequence (Q9Y243 whole entry): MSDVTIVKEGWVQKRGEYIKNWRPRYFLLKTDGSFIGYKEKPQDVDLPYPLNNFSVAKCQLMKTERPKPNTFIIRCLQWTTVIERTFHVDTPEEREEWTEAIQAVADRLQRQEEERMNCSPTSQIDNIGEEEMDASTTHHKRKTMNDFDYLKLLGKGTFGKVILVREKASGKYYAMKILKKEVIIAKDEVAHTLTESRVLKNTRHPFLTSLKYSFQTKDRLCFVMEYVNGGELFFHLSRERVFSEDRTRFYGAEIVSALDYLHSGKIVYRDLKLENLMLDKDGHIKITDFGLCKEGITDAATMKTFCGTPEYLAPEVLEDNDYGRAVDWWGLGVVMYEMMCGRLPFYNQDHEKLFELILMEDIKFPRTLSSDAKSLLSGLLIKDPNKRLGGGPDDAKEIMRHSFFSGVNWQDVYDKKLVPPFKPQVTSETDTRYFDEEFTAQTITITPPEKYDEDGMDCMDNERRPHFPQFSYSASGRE
From the text: as §1

[5] = tested on: Tregs; experiment: Percent of Tregs in Rag-/- mice; format: in vivo, mouse; conditions: compared to untreated
From the text: FIG. 22A is a bar graph showing the number of CD4^+ T cells per 10^6 live cells in the spleen of WT, UT, iTreg, mJJ64A, and mJJ64A treated iTreg treated Rag^−/− mice. The X-axis represents treatment group and the Y-axis represents number of CD4^+ cells per 10^6 live cells. FIG. 22B is a bar graph showing the percent of FoxP3^+ cells per CD4^+ T cells in the spleen of WT, UT, iTreg, mJJ64A, and mJJ64A treated iTreg treated Rag^−/− mice. The X-axis represents treatment group and the Y-axis represents number of FoxP3^+ cells per CD4^+ cells. FIG. 22C is a bar graph showing the percent of FoxP3^− cells per CD4^+ T cells in the spleen of WT, UT, iTreg, mJJ64A, and mJJ64A treated iTreg treated Rag^−/− mice. The X-axis represents treatment group and the Y-axis represents number of FoxP3^− cells per CD4^+ cells. FIG. 22D is a bar graph showing the number of CD4^+ T cells per 10^6 live cells in the lymph node of WT, UT, iTreg, mJJ64A, and mJJ64A treated iTreg treated Rag^−/− mice. The X-axis represents treatment group and the Y-axis represents number of CD4^+ cells per 10^6 live cells. FIG. 22E is a bar graph showing the percent of FoxP3^+ cells per CD4^+ T cells in the lymph node of WT, UT, iTreg, mJJ64A, and mJJ64A treated iTreg treated Rag^−/− mice. The X-axis represents treatment group and the Y-axis represents number of FoxP3^+ cells per CD4^+ cells. […]

[6] = tested on: mouse iTreg cells; experiment: Suppressive function of mouse iTregs in vitro; format: cell-based; conditions: iTreg to Tconv ratios 0:1 to 2:1
From the text: FIGS. 15A-15J is a set of histograms showing the suppressive function of mouse iTregs in untreated and mJJ64A treated iTregs. The ratio of iTreg to Tconv cells was 0:1, 0.5:1, 1:1, and 2:1.

[7] = target: T2, Akt3 pS472 (Homo sapiens, UniProt Q9Y243); experiment: Akt3 phosphorylation in A2780 cells; format: cell-based; conditions: human ovarian carcinoma cells (A2780)
T2 construct: expression of Akt1 pS473, Akt2 pS474, Akt3 pS472, and Akt pan 5473,474,472 in A2780 cells; endogenous in cells; host or cells: A2780 human ovarian carcinoma cells
T2 sequence (Q9Y243 whole entry): as above
From the text: (§2) FIG. 10 is a bar graph showing the effect of mJJ64A on the expression of Akt1 pS473, Akt2 pS474, Akt3 pS472, and Akt pan 5473,474,472 in A2780 cells compared to control. The Y axis represents integrated density value.

[8] = tested on: nTregs; experiment: Proliferation and viability of activated nTregs; format: cell-based
From the text: FIGS. 14A-14H is a set of histograms showing proliferation of activated nTregs treated with various concentrations of mJJ64A. FIG. […] is a bar graph showing percent proliferation of nTregs treated with various concentrations of mJJ64A. The X-axis represents treatment and the Y-axis represents percent proliferation. FIG. 13J is a bar graph showing the percent of live cells in nTregs treated with various concentrations of mJJ64A. The X-axis represents treatment and the Y-axis represents percentage of live cells.
FIGS. 16A-16L is a set of histograms showing the suppressive function of untreated and mJJ64A treated nTregs. The ratio of nTreg to Tconv cells is 0:1, 0.5:1, 1:1, 2:1, and 3:1.

[9] = target: T3, Akt1 pS473 (Homo sapiens, UniProt P31749); experiment: Akt1 phosphorylation in A2780 cells; format: cell-based; conditions: human ovarian carcinoma cells (A2780)
T3 construct: expression of Akt1 pS473, Akt2 pS474, Akt3 pS472, and Akt pan 5473,474,472 in A2780 cells; endogenous in cells; host or cells: A2780 human ovarian carcinoma cells
T3 sequence (P31749 whole entry): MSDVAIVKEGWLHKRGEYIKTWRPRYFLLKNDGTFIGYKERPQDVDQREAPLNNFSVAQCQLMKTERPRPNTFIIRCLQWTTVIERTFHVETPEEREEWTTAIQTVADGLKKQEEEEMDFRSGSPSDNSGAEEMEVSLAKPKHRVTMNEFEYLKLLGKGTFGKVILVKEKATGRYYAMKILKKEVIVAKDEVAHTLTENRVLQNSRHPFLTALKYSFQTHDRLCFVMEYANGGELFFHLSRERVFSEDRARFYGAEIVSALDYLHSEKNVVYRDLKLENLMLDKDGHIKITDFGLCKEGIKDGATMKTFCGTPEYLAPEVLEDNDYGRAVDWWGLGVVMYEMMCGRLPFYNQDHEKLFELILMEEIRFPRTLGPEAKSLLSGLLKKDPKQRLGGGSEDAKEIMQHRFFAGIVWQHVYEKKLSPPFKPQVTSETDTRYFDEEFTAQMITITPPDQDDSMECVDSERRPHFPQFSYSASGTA
From the text: as §2

[10] = tested on: Tregs; experiment: Percent of Tregs in EAE mice; format: in vivo, mouse; conditions: compared to untreated
From the text: FIGS. 25A-251 are bar graphs showing the percent of FoxP3^+ cells per CD4^+ T cells, FoxP3^− cells per CD4^+ T cells, and ROR^+ cells per CD4^+ T cells in the spleen (FIG. 25A-25C), blood (FIG. 25D-25F), and brain (FIG. 25G-251) of UT, iTreg, mJJ64A-3, mJJ64A-6 and mJJ64A-10 treated EAE mice. The X-axis represents treatment group and the Y-axis represents number of FoxP3^+ cells, FoxP3^−, or ROR^+ cells per CD4^+ cells.

Structure (SMILES): N#Cc1ccc2nccc(Nc3ccc(C(=O)Nc4ccc(Nc5ccncc5)cc4)cc3)c2c1 [Compound 2]
- expression of FoxP3 in Tconv cells during iTreg induction [1]: increased
- disease progression in EAE model ([2]; EAE score): reduced
- survival rate in EAE model ([2]; mouse, in vivo): increased
- proliferation of non-Treg CD4 and CD8 T cells [3]: not
- expression of Akt3 in Tconv cells during iTreg induction [4]: increased
- percent of Tregs in the spleen and mesenteric lymph nodes [5]: increased
- suppressive function of mouse iTreg cells in vitro [6]: increased
- phosphorylation of Akt3 [7]: significantly increases
- viability of nTregs [8]: without affecting
- proliferation of nTregs ([8]; activated nTregs): increased
- phosphorylation of Akt1 [9]: not
- percent of Tregs in the spleen, blood, and brain [10]: increased
